Test results as given in the supplement of paper PMC13380429.

Assays:
Settings in all cases: 72 h
Calu-3 [1] = experiment: relative viability EC50 (midpoint between 100% and the lowest measured viability); higher = less toxic
Caco-2 [2] = experiment: as above
HepG2 [3] = experiment: as above
Vero E6 [4] = experiment: as above
U2OS [5] = experiment: as above
Calu-3 [6] = experiment: cell viability relative to DMSO; higher = less toxic
Caco-2 [7] = experiment: as above
HepG2 [8] = experiment: as above
Vero E6 [9] = experiment: as above
U2OS [10] = experiment: as above
Calu-3 [11] = experiment: drug sensitivity score (DSS) for viability; higher = more toxic; extreme values may be limits of the assay
Caco-2 [12] = experiment: as above
HepG2 [13] = experiment: as above
Vero E6 [14] = experiment: as above
U2OS [15] = experiment: as above

Structure (SMILES) | relative viability EC50 (Calu-3 [1]) [µM] | relative viability EC50 (Caco-2 [2]) [µM] | relative viability EC50 (HepG2 [3]) [µM] | relative viability EC50 (Vero E6 [4]) [µM] | relative viability EC50 (U2OS [5]) [µM] | cell viability (Calu-3 [6]; 1 nM) [%] | cell viability (Calu-3 [6]; 10 nM) [%] | cell viability (Calu-3 [6]; 100 nM) [%] | cell viability (Calu-3 [6]; 1000 nM) [%] | cell viability (Calu-3 [6]; 10000 nM) [%] | cell viability (Caco-2 [7]; 1 nM) [%] | cell viability (Caco-2 [7]; 10 nM) [%] | cell viability (Caco-2 [7]; 100 nM) [%] | cell viability (Caco-2 [7]; 1000 nM) [%] | cell viability (Caco-2 [7]; 10000 nM) [%] | cell viability (HepG2 [8]; 1 nM) [%] | cell viability (HepG2 [8]; 10 nM) [%] | cell viability (HepG2 [8]; 100 nM) [%] | cell viability (HepG2 [8]; 1000 nM) [%] | cell viability (HepG2 [8]; 10000 nM) [%] | cell viability (Vero E6 [9]; 1 nM) [%] | cell viability (Vero E6 [9]; 10 nM) [%] | cell viability (Vero E6 [9]; 100 nM) [%] | cell viability (Vero E6 [9]; 1000 nM) [%] | cell viability (Vero E6 [9]; 10000 nM) [%] | cell viability (U2OS [10]; 1 nM) [%] | cell viability (U2OS [10]; 10 nM) [%] | cell viability (U2OS [10]; 100 nM) [%] | cell viability (U2OS [10]; 1000 nM) [%] | cell viability (U2OS [10]; 10000 nM) [%] | drug sensitivity score (Calu-3 [11]) | drug sensitivity score (Caco-2 [12]) | drug sensitivity score (HepG2 [13]) | drug sensitivity score (Vero E6 [14]) | drug sensitivity score (U2OS [15])
CC(C)(C)/[N+]([O-])=C/c1ccc(S(=O)(=O)O)cc1S(=O)(=O)O [NXY-059] | > 10 | > 10 | > 10 | > 10 | > 10 | 91.3 | 97 | 98.4 | 95 | 95.8 | 98.5 | 101 | 96.5 | 105 | 97.5 | 101 | 94.4 | 102 | 100 | 96.8 | 99.1 | 105 | 106 | 105 | 101 | 94.6 | 100 | 93.4 | 98.7 | 106 | 0 | 0 | 0 | 0 | 0
Cc1ccccc1CN1C(=O)C2=C(CCN(Cc3ccccc3)C2)N2CCN=C12 [ONC201] | > 10 | 3.72 | 2.39 | 3.35 | 3.64 | 103 | 103 | 102 | 106 | 75.7 | 108 | 106 | 93.4 | 107 | 44.1 | 108 | 93.7 | 104 | 91.6 | 10.3 | 110 | 101 | 103 | 102 | 32.2 | 100 | 102 | 95.4 | 106 | 41.1 | 0.6 | 2.5 | 6.3 | 3.5 | 2.8
CN1CC[C@@H](c2c(O)cc(O)c3c(=O)cc(-c4ccccc4Cl)oc23)[C@@H]1CO [P276-00] | 0.604 | 0.881 | 0.324 | 1.21 | 0.878 | 108 | 103 | 94.5 | 59 | 38.2 | 101 | 108 | 95.1 | 57.6 | 21.8 | 114 | 94.7 | 101 | 6.6 | 7.6 | 103 | 95.8 | 102 | 63.9 | 6.1 | 97.6 | 100 | 90.3 | 49.3 | 3 | 8.5 | 9.4 | 16.7 | 10.1 | 11.5
O=C(/C=C/c1ccc2ccc(C(F)(F)F)cc2n1)c1ccncc1 [PFK-158] | > 10 | > 10 | 3.37 | > 10 | 3.22 | 92.1 | 96.3 | 90.5 | 104 | 89.9 | 95.9 | 92.8 | 102 | 92.3 | 88.2 | 97.1 | 84.6 | 96.3 | 102 | 44.9 | 105 | 86.7 | 110 | 92.1 | 87.3 | 94.4 | 100 | 93.9 | 101 | 0 | 0 | 0 | 2.8 | 0.5 | 5.5
Nc1cc(C(F)(F)F)c(-c2nc(N3CCOCC3)nc(N3CCOCC3)n2)cn1 [PI3K-IN-2] | 0.376 | 1.12 | 0.935 | 1.12 | 2.07 | 88.3 | 102 | 78.1 | 48 | 21.4 | 107 | 106 | 97.7 | 63.3 | 17.1 | 124 | 106 | 101 | 59.4 | 25.1 | 106 | 106 | 105 | 70 | 30 | 103 | 106 | 99 | 89.7 | 24.5 | 12.4 | 9.1 | 9.1 | 7.8 | 5.9
C[C@@]1(F)[C@H](O)[C@@H](CO)O[C@H]1n1ccc(N)nc1=O [PSI-6130] | > 10 | > 10 | > 10 | > 10 | > 10 | 99.3 | 99.6 | 96 | 100 | 96.7 | 94.8 | 96.8 | 94.7 | 103 | 108 | 103 | 91.8 | 106 | 100 | 107 | 101 | 93.3 | 100 | 92.5 | 106 | 95.5 | 101 | 96.9 | 100 | 107 | 0 | 0 | 0 | 0 | 0
C[C@@H](CN1CCC(Cc2ccccc2)CC1)[C@@H](O)c1ccc(O)cc1 [Ro-25-6981] | > 10 | > 10 | > 10 | > 10 | > 10 | 97.4 | 98.2 | 89.1 | 95.8 | 107 | 97.1 | 92.3 | 86.9 | 94.4 | 94.3 | 93.9 | 100 | 102 | 101 | 102 | 103 | 102 | 103 | 107 | 99.8 | 99.1 | 102 | 96.5 | 96.8 | 100 | 0 | 0 | 0 | 0 | 0
